Reference: paper PMC4569406, “Identification of Tetraazacyclic Compounds as Novel Potent Inhibitors Antagonizing RORγt Activity and Suppressing Th17 Cell Differentiation” (PLoS ONE, 2015)
“Also recorded” adds a separate entry of the source.

Tests used:
RORγt-LBD [1] = molecular target: T1, RORγt-LBD (Homo sapiens, UniProt P51449); assay: Gal4-RORγtLBD luciferase reporter assay in RORγt+-Jurkat stable cells (HTS / EC50 assay); format: cell-based; design: Human RORγtLBD was amplified from cDNA of human PBMC; expressed in transfected cells; host or cells: Jurkat cells stably carrying pGL4.31[luc2P/GAL4UAS/Hygro], GFP-sorted; conditions: for EC50: 5 μM to 8 nM 5-fold gradient, read-out: EC50 (anti-RORγt activity, relative luciferase activity)
T1 sequence (P51449 269-508 limits assumed): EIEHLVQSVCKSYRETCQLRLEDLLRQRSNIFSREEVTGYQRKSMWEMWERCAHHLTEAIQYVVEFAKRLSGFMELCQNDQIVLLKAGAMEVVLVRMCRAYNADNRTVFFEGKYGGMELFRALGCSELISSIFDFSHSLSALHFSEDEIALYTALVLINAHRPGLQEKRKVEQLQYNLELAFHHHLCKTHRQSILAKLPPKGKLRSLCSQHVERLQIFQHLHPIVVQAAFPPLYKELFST
Description: (§1) The pGL4.31[luc2P/GAL4UAS/Hygro] reporter plasmid and the pBIND vector were purchased from Promega (USA). The fragment of IRES-GFP was first inserted into NotI sites of pBIND. Human RORγtLBD was amplified from cDNA of human PBMC (cDNA is provided by Dr. Hui Zhang) and then cloned into the pBIND-IRES-GFP to generate the fusion sequence Gal4DBD-RORγtLBD-IRES-GFP. The primers that were used to construct the pBIND-Gal4DBD-RORγtLBD-IRES-GFP plasmid are shown as follows: RORγtLBD forward 5’- […]-3’, reverse 5’- […] -3’.
(§2) Similar to the above procedure, to obtain the needed Jurkat-RORγt reporter cell lines, a total of 1x10^7 Jurkat cells were transfected with 20 μg pGL4.31 reporter plasmids by electroporation (Lonza, Swiss) according to the manufacturer’s instructions. The transfected Jurkat cells were also selected in RPMI 1640 medium containing 200 μg/mL hygromycin B. And then the 20 μg PBIND-RORγtLBD-IRES-GFP plasmids were also transfected into the stable Jurkat clone and were sorted by GFP. GFP^+-Jurkat stable cell purity was determined >96% by flow cytometry analysis and GFP^--Jurkat stable cells were also sorted (Fig 1).
RORγt^+-Jurkat stable cells (2x10^4) were seeded into 96-well round-bottom plates (Corning, Costar)and incubated in RPMI1640 complete medium overnight. At initial round screening, drug-like set compounds (Enamine, Monmouth Jct, NJ) were added using a Tecan Freedom EVO150 (Tecan, Männedorf, Schweiz) with a final concentration of 50 μM, which used by other research. 50 μM concentration is pretty high in drug screening and always raises many false positive. To reduce these false positive, we reduced the compounds concentration to 5 μM in the second round validation screening. Column 12 of each plate received only DMSO instead of any compounds as a negative control. In addition, column 1 of each plate was treated with 100 nM PMA (Sigma-Aldrich, USA) as a positive control. 6 hours later, the cells were then lysed and assayed for luciferase activity (Promega, USA) following the manufacturer’s instructions.
Jurkat-RORγt^+ stable cells were seeded into 96-well round-bottom plates (2x10^4) overnight and incubated with the compounds by 5-fold gradient, with final concentrations from 5μM to 8nM. 6h later, the cells were then lysed and assayed for luciferase activity (Promega, USA) following the manufacturer’s instructions. The values of half-maximal effective concentration (EC50) were determined by plotting the logarithm of compound concentration versus relative luciferase activity.
The EC50 and CC50 of all three compounds were determined to further identify the effects of these three tetraazacyclic compounds. […] The CC50 values of each compound in Jurkat cells were also determined as previously described in the methods section.

RORγt-LBD [2] = molecular target: T1, RORγt-LBD; assay: Inhibition of RORγt activity in RORγt+-293T stable reporter cells (luciferase); format: cell-based
Description: as §1
The 4 μg pGL4.31 reporter plasmids (promega, USA) were transfected into 293T cells (1 x 10^6) with Lipofectamin^TM 2000 (Invitrogen, USA) according to the manufacturer’s instructions. The transfected cells were then selected in medium containing 100 μg/mL hygromycin B (Roche, USA) for 3 weeks to obtain a stable clone which express pGL4.31 reporter gene. Then 4 μg pBIND-RORγtLBD-IRES-GFP plasmids were also transfected into the stable clone. The second transfected cells were sorted by Green Fluorescent Protein (GFP). Through this process, we obtained the 293T-RORγt stable reporter cell line. GFP^+-293T stable cell purity was determined >96% by flow cytometry analysis, which yielded a RORγt^+-293T (RORγt-LBD positive 293T cells) stable reporter cell line, and GFP^--293T stable cells were also sorted and used as a RORγt negative control cell line (Fig 1).
RORγt^+-293T stable cells (1x10^4) were seeded into 96-well plates (Corning, Costar)and incubated in DMEM complete medium overnight. Then the candidates were added with a final concentration of 5 μM. Negative control (DMSO) and positive control were carried on as HTS. 6 hours later, the cells were then lysed and assayed for luciferase activity (Promega, USA) following the manufacturer’s instructions.

RORγt--Jurkat cells = assay: Luciferase reporter activity in RORγt--Jurkat (RORγt-LBD negative) control cells; format: cell-based; conditions: different concentrations of PMA (100 nM, 10 nM, 1 nM), 4 and 6 hr
Method: as §2
RORγt^+-Jurkat (RORγt-LBD positive Jurkat cells) and RORγt^--Jurkat (RORγt-LBD negative Jurkat cells) stable cells (1x10^5) were seeded onto separate 12-well plates and cultured overnight. Cells were then stimulated with different concentrations of PMA (100 nM, 10 nM, 1 nM) or DMSO (negative control) for 4, 6, and 8 hr. […] Luciferase activity was highest in cells cultured with 100nM PMA, it was at approximately 40-fold over the DMSO control (Fig 2A and 2B). When RORγt^+-Jurkat cells were cultured for 6 hr, the luciferase activity was nearly identical across the concentrations and increased from control by about 40-fold at various concentrations (Fig 2D and 2E). […]

[3] = tested on: Th17 cell differentiation; design: method as in PMID 21499262, PMID 22769242; conditions: cited from earlier work
[4] = Cell viability (MTT) assay; format: cell-based; conditions: human, wild type Jurkat cells, highest concentration 5 μM
Method: The cell viabilities of Jurkat cells (wild type) after treatment with chemicals were assessed by MTT technique. In brief, wild type Jurkat cells were seeded (2x10^4) and incubated with the compounds by 5-fold gradient concentrations, as described above. 48h treatment later, MTT (Dimethylthiazolyl-2-5-diphenyltetrazolium bromide) dye solution (Sigma, USA) was added into the 96-well plate and incubated at 37°C for 4 h, MTT is cleaved by live cells to a colored formazan product. After centrifugation (1500rpm, 5min) the supernatant was discarded. 100μl DMSO was added to dissolve the formazan product and gently shaken for 10min. Absorbance at 570 nm wavelength was recorded using a Thermo Scientific Multiskan FC (Thermo Scientific, USA). Each treatment was repeated in quadruplicate. Cell viabilities were defined relative to control cells (DMSO treated). The half-maximal cytotoxic concentration (CC50) for each compound was calculated from these dose-response curves with the aid of Graphpad Prism software (GraphPad Software, CA).

[5] = tested on: Th17 cell differentiation; assay: Th17 differentiation of mouse CD4+CD25- T cells, qPCR of Rorγt, Il17a, Il17f; format: cell-based; conditions: 5 μM, normalized to Gapdh; for attenuation of Il17a mRNA expression vs vehicle-treated control: Th17 polarizing conditions (TGF-β, IL-6); for suppression of Il17f mRNA expression: Th17 polarizing conditions
Description: (§3) CD4^+CD25^- T cells were isolated from spleens of 12-week-old C57BL/6 as follows: single-cell suspensions were made by crushing the spleen through a cell strainer, and red blood cells (RBCs) were lysed with an RBC lysis buffer. CD4^+ T cells were then purified using MACS magnetic cell column with a CD4^+ T cell isolation kit (Miltenyi, Biotec) according to the manufacturer’s protocol. Isolated cells were fluorescently stained with PE-conjugated anti-mouse TCR-βAb, PE-Cy7-conjugated anti-mouse CD4 Ab and APC-conjugated anti-mouse CD25 Ab (BD Bioscience, USA) and analyzed by flow cytometry.
(§4) The isolated CD4^+CD25^- T cells (3x10^6) were cultured under Th17 conditions. […] Specifically, the isolated CD4^+CD25^- T cells (3x10^6) were stimulated (in 6-well plates) with 5 μg/ml plate-bound anti-CD3e antibody (eBioscience, USA) and 2 μg/ml soluble anti-CD28 Ab (eBioscience, USA) for 24 hours. Then the activated cells were collected, resuspended and seeded into 96-well round-bottom plates (2x10^4) for Th17 differentiation in the presence of 5 ng/ml recombinant human TGF-β, 30 ng/ml recombinant mouse IL-6 (R&D systems) and DMSO as control or hit compounds with a final concentration of 5 μM. The cells were cultured for 2 days. Later, fresh medium was added (100ul/well) containing recombinant human TGF-β, recombinant mouse IL-6 (R&D systems) and the hit compounds as previously introduced for culturing another 2 days.
After 5 days of culture, splenocyte total RNA was extracted with TRIzol (Invitrogen, USA). Then about 1000ng total RNA was added to a 20 μL reaction volume for reverse transcriptions by the GoScript Reverse Transcription System (Promega, USA) according to the manufacturer’s instructions, followed by real-time quantification using GoTaq qPCR Master Mix (Promega, USA). Gene expression of mouse Rorγt, Il17a and Il17f was normalized to the expression of Gapdh. The following primer sequences were used: Rorc forward 5’-TGTAATGTGG CCTACTCCTGCA-3’, reverse 5’-[…]-3’; Il17a forward 5’-[…]-3’, reverse 5’-[…]-3’; Il17f forward 5’-[…]-3’, reverse 5’- […]-3’; Gapdh forward 5’-[…]-3’, reverse 5’-[…]-3’.

IL-17A secretion = IL-17A secretion by ELISA under Th17 polarizing conditions; format: cell-based, mouse; conditions: 5 μM; for IL-17A concentration in supernatant / reduction of IL-17A secretion vs vehicle-treated control cells: Th17 polarizing conditions, ELISA
Description: as §3, §4
After 5 days of culture, the concentration of IL-17A in the supernatant was determined by an ELISA kit according to the manufacturer’s protocol (CUSABIO Systems, China).

inhibition at 5 µM (RORγt-LBD [1]; 5 μM, 6 hr, vs vehicle control) [%] | EC50 (RORγt-LBD [1]; RORγt+-Jurkat cells, 6 hr) [nM] | inhibition at 5 µM (RORγt-LBD [2]; 5 μM, 6 h, vs vehicle control) [%] | inhibition of reporter activity in RORγt+-293T cells (RORγt-LBD [2]; 5 μM, 6 h, vs vehicle control) | SMILES | luciferase activity, fold over DMSO control (RORγt-LBD [1]; RORγt+-Jurkat cells, 100 nM PMA, 4 hr) | luciferase activity, fold increase from control (RORγt-LBD [1]; RORγt+-Jurkat cells, 100 nM, 10 nM, 1 nM PMA, 6 hr) | greatest increase in luciferase activity vs DMSO (RORγt-LBD [2]; RORγt+-293T cells, 100 nM PMA, 4 hr and 6 hr) | luciferase activity in RORγt--Jurkat cells (RORγt--Jurkat cells) | activity in Th17 cell differentiation study [3] | CC50 at 48 h [4] [µM] | attenuation of Il17a mRNA expression vs vehicle-treated control [5] | suppression of Il17f mRNA expression [5] | IL-17A concentration in supernatant (IL-17A secretion) [pg/mL] | reduction of IL-17A secretion vs vehicle-treated control cells (IL-17A secretion) [%] | suppression / reduction in IL-17A production (Discussion summary) (IL-17A secretion; mouse Th17 differentiation, for 11 and 14 both mRNA expression and protein secretion)
75 | 2600 | 95 | – | CCN(CC)Cc1nc(Sc2nnnn2-c2ccccc2)c2c(C)c(C)sc2n1 [compound 7, N-[[5,6-dimethyl-4-(1-phenyltetrazol-5-yl)sulfanylthieno[3,2-e]pyrimidin-2-yl]methyl]-N-ethylethanamine] | – | – | – | – | – | 1.5 | 65%-80% | 87% | 196 | 47 | ~ 50%
– | 250 | – | significantly less inhibition | Cc1ccccc1-n1nnnc1Sc1ccnc2cc(Cl)ccc12 [compound 11, 7-chloro-4-[1-(2-methylphenyl)tetrazol-5-yl]sulfanylquinoline] | – | – | – | – | – | > 5 | 65%-80% | 90% | 136 | 63 | –
– | 670 | – | significantly less inhibition | Cc1cccc(C)c1-n1nnnc1Sc1ncnc2ccsc12 [compound 14, 4-[1-(2,6-dimethylphenyl)tetrazol-5-yl]sulfanylthieno[3,2-d]pyrimidine] | – | – | – | – | – | > 5 | 65%-80% | did not significantly inhibited; also recorded: no significant inhibition | 88 | 74 | –

Second part, the compound before the results:

SMILES | inhibition at 5 µM (RORγt-LBD [1]; 5 μM, 6 hr, vs vehicle control) [%] | EC50 (RORγt-LBD [1]; RORγt+-Jurkat cells, 6 hr) [nM] | inhibition at 5 µM (RORγt-LBD [2]; 5 μM, 6 h, vs vehicle control) [%] | inhibition of reporter activity in RORγt+-293T cells (RORγt-LBD [2]; 5 μM, 6 h, vs vehicle control) | luciferase activity, fold over DMSO control (RORγt-LBD [1]; RORγt+-Jurkat cells, 100 nM PMA, 4 hr) | luciferase activity, fold increase from control (RORγt-LBD [1]; RORγt+-Jurkat cells, 100 nM, 10 nM, 1 nM PMA, 6 hr) | greatest increase in luciferase activity vs DMSO (RORγt-LBD [2]; RORγt+-293T cells, 100 nM PMA, 4 hr and 6 hr) | luciferase activity in RORγt--Jurkat cells (RORγt--Jurkat cells) | activity in Th17 cell differentiation study [3] | CC50 at 48 h [4] [µM] | attenuation of Il17a mRNA expression vs vehicle-treated control [5] | suppression of Il17f mRNA expression [5] | IL-17A concentration in supernatant (IL-17A secretion) [pg/mL] | reduction of IL-17A secretion vs vehicle-treated control cells (IL-17A secretion) [%] | suppression / reduction in IL-17A production (Discussion summary) (IL-17A secretion; mouse Th17 differentiation, for 11 and 14 both mRNA expression and protein secretion)
CCCCCCCCCCCCCC(=O)O[C@@H]1[C@@H](C)[C@@]2(O)[C@@H](C=C(CO)C[C@]3(O)C(=O)C(C)=C[C@@H]23)[C@@H]2C(C)(C)[C@]12OC(C)=O [PMA, phorbol-12-myristate-13-acetate, reference compound] | – | – | – | – | approximately 40 fold | approximately 40 fold | 4–6 folds | no significant increase | – | – | – | – | – | – | –
CC(=O)Nc1nc(C)c(S(=O)(=O)Nc2ccc(C(O)(C(F)(F)F)C(F)(F)F)cc2)s1 [SR1001] | – | – | – | – | – | – | – | – | relatively weak activity | – | – | – | – | – | –
